From publication PMC11436104 (Toxins, 2024)
“And” between values parts separate entries of the source, which are not always exact repeats. Identical values can stand only once. Like-named read-outs stand apart in the source and are kept apart here. *1 amine or outer side, *2 acyl side, *3 side chain or, on linkers, in order; H or OH if unused. Where a SMILES comes first, the peptide text is derived from it. Bridges are numbered along the chain shown (N, C = ends). [ ]: non-standard residue; d: D form. Adda = CO[C@@H](Cc1ccccc1)[C@@H](C)/C=C(C)/C=C/[C@H](N[*:1])[C@H](C)C(=O)[*:2]; dAsp(3S-Me) = C[C@H](C(=O)[*:3])[C@@H](N[*:1])C(=O)[*:2]; d(γGlu) = O=C(O)[C@@H](CCC(=O)[*:2])N[*:1]; hTyr = N[C@@H](CCc1ccc(O)cc1)C(=O)O; NMeA = CN[C@@H](C)C(=O)O; NMeDha = C=C(NC)C(=O)O; CO = O=C([*:1])[*:2]

Assays:
[1] = biological target: T1, Ser/Thr protein phosphatase type-1 (PP1; α isoform catalytic subunit) (Oryctolagus cuniculus, UniProt P62139); assay: Colorimetric protein phosphatase inhibition assay, p-nitrophenyl phosphate substrate; type: biochemical, rabbit
T1 construct: purchased Sigma 539493; host or cells: Escherichia coli
T1 sequence (P62139 whole entry, canonical isoform): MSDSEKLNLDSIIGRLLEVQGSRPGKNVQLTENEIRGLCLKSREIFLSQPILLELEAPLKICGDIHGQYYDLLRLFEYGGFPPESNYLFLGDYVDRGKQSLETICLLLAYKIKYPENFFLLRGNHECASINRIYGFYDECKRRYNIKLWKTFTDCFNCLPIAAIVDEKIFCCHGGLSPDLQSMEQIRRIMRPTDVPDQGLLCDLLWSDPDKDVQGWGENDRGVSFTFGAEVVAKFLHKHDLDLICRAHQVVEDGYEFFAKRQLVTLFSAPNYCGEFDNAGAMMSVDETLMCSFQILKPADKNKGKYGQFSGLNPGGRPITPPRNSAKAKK
Protocol: (§1) The inhibition of Ser/Thr protein phosphatases by the CCPs was measured using the colorimetric inhibition assay described by An and Carmichael and Gkelis et al., with some modifications. […] Enzymes, PP1 and PP2A, were diluted in reaction buffer #1 (50 mM Tris-HCl, 1.0 g/L bovine serum albumin, 1.0 mM MnCl2, 2.0 mM dithiothreitol, pH 7.4), and p-nitrophenyl phosphate was prepared in substrate buffer (0.1 M glycine, pH 10.4, 1 mM MgCl2, 1 mM ZnCl2). The assay was performed by the addition of each CCP (as a potential inhibitor; final concentrations, 0.1, 1, 10, and 100 µM) to the enzyme solution (i.e., PP1 and PP2A; final concentrations, 1 U/well and 0.01 U/well, respectively, where 1 U hydrolyzes 1 nmole of substrate per minute at pH 7.4 at 30 °C). After a few seconds of gentle shaking, the microplate was kept at room temperature for 5 min, followed by the addition of reaction buffer #2 (50 mM Tris-HCl, 0.5 g/L bovine serum albumin, 0.2 mM MnCl2, 20 mM MgCl2, and pH 8.1) for PP1, or reaction buffer #1 for PP2A. The reactions were started by the addition of p-nitrophenyl phosphate (final concentrations, 15 mM for PP1 and 10 mM for PP2A) and were carried out for 120 min at 37 °C. The hydrolysis of p-nitrophenyl phosphate to […] was recorded at 405 nm using a microplate reader (Tecan, Austria). The inhibition percentages (X) were calculated from the absorbances of the samples after incubation for 30 min, as according to Equation (1):X (%) = (APP − AS)/APP × 100,(1) where APP is the absorbance of the control sample (i.e., enzyme only), and AS is the absorbance of the test sample (i.e., enzyme with potential inhibitor). […] All measurements were repeated a minimum of three independent times, with five technical replicates per experiment. IC50 values are expressed as means ± SD.

[2] = biological target: T2, Ser/Thr protein phosphatase type-2A (PP2A) (Bos taurus, UniProt P67774); assay: as above; type: biochemical, bovine
T2 construct: PP2A; from bovine kidney; purchased Sigma P1868; host or cells: bovine kidney (tissue-purified)
T2 sequence (P67774 whole entry): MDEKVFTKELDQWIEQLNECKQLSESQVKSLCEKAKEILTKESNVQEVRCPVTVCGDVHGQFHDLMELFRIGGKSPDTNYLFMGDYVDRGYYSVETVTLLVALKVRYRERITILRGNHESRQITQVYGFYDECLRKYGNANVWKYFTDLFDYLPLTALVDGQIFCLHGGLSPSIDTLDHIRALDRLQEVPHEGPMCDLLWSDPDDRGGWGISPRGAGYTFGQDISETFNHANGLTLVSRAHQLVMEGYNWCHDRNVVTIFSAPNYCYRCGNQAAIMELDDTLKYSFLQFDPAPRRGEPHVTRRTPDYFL
Protocol: as §1

[3] = test system: ACTB; assay: Gene expression by quantitative real-time PCR in NHA; type: cell-based, human
Protocol: (§2) Cells were seeded onto 6-well plates, left to attach for 16 h, and treated with each non-hCCP separately (0.1–10 µM) and the hepatotoxic MC-LR (0.01–1 µM) for 24 h at 37 °C in the CO2 incubator. The total RNA from the cells (0.5–1.0 × 10^6 cells) was isolated using the TRIzol reagent (Invitrogen), and the cDNA was synthesized using 1 μg total RNA with cDNA high-capacity archive kits (Applied Biosystems, Foster City, CA, USA), according to the manufacturer’s protocol.
(§3) The expression levels of TUBA1A, ACTB, NES, and GFAP were quantified using quantitative real-time PCR (ABI 7900 HT Sequence Detection System; Applied Biosystems). TaqMan Universal PCR Master Mix and the following TaqMan Gene Expression Assays were used: TUBA1A: tubulin, alpha 1a, Hs00362387_m1; ACTB: actin, beta, Hs99999903_m1; NES, nestin, Hs00707120_s1; and GFAP, glial fibrillary acidic protein, and Hs00157674_m1 (all from Applied Biosystems). Amplification of a glyceraldehyde 3-phosphate dehydrogenase probe GAPDH (Human Endogenous Controls, Cat. # 4310884E; Applied Biosystems) was performed as an internal control. The conditions for the quantitative real-time PCR were as follows: 50 °C for 2 min, 95 °C for 10 min, 40 cycles of 95 °C for 15 s, and 60 °C for 1 min.
(§4) The data obtained from the TaqMan Gene Expression Assays were analyzed using the ΔΔCt algorithm. Two replicates per concentration and three independent experiments were performed. The statistical significance between the controls and the treated groups was determined using two-tailed Student’s t-tests, where p < 0.05 was statistically significant. In addition, the relative expression was normalized to the housekeeping gene GAPDH (relative quantification), with at least three sample concentrations used for each gene in both untreated cell lines.

[4] = test system: GFAP; assay: as above; type: cell-based, human
Protocol: as §2, §3, §4

[5] = test system: NES; assay: as above; type: cell-based, human
Protocol: as §2, §3, §4

[6] = test system: TUBA1A; assay: as above; type: cell-based, human
Protocol: as §2, §3, §4

[7] = test system: ACTB; assay: Gene expression by quantitative real-time PCR in U-87MG cells; type: cell-based, human; conditions: 24 h, relative to non-treated control
Protocol: as §2, §3, §4

[8] = test system: GFAP; assay: as above; type: cell-based, human; conditions: 24 h, relative to non-treated control
Protocol: as §2, §3, §4

[9] = test system: NES; assay: as above; type: cell-based, human
Protocol: as §2, §3, §4

[10] = test system: TUBA1A; assay: as above; type: cell-based, human
Protocol: as §2, §3, §4

[11] = means ± SD, p-nitrophenyl phosphate 15 mM
[12] = means ± SD, p-nitrophenyl phosphate 10 mM
[13] = NHA, 0.1 µM CCP, 24 h, relative to non-treated control
[14] = NHA, 1 µM CCP, 24 h, relative to non-treated control
[15] = NHA, 10 µM CCP, 24 h, relative to non-treated control
[16] = U-87MG, 0.1 µM CCP, 24 h, relative to non-treated control
[17] = U-87MG, 1 µM CCP, 24 h, relative to non-treated control
[18] = U-87MG, 10 µM CCP, 24 h, relative to non-treated control

| Compound | IC50 [1, 11] [µM] | IC50 [2, 12] [µM] | Changes in gene expression of ACTB [3, 13] | Changes in gene expression of ACTB [3, 14] | Changes in gene expression of ACTB [3, 15] | Changes in gene expression of GFAP [4, 13] | Changes in gene expression of GFAP [4, 14] | Changes in gene expression of GFAP [4, 15] | Changes in gene expression of NES [5, 13] | Changes in gene expression of NES [5, 14] | Changes in gene expression of NES [5, 15] | Changes in gene expression of TUBA1A [6, 13] | Changes in gene expression of TUBA1A [6, 14] | Changes in gene expression of TUBA1A [6, 15] | Changes in gene expression of ACTB ([7]; 0.1 µM CCP) | Changes in gene expression of ACTB ([7]; 1 µM CCP) | Changes in gene expression of ACTB ([7]; 10 µM CCP) | Changes in gene expression of GFAP ([8]; 0.1 µM CCP) | Changes in gene expression of GFAP ([8]; 10 µM CCP) | Changes in gene expression of NES [9, 16] | also measured |
| --- | --- | --- | --- | --- | --- | --- | --- | --- | --- | --- | --- | --- | --- | --- | --- | --- | --- | --- | --- | --- | --- |
| CC[C@H](C)[C@@H]1NC(=O)[C@H](NC(=O)N[C@@H](CCCNC(=N)N)C(=O)O)CCCCNC(=O)[C@H](Cc2ccccc2)NC(=O)[C@H](C)N(C)C(=O)[C@H](CCc2ccc(O)cc2)NC1=O [anabaenopeptin F] ({Arg-CO}-[dK]I[hTyr][NMeA]F; lactam 1-C) | 28.2 ± 3.4 | 1 ± 0.2 | 0.824 ± 0.227 | 1.121 ± 0.167 | 0.890 ± 0.184 | 1.326 ± 0.507 | 0.846 ± 0.211 | 1.167 ± 0.250 | 1.345 ± 0.205 | 1.449 ± 0.171 | 1.381 ± 0.173 | 0.941 ± 0.186 | 1.144 ± 0.291 | 0.826 ± 0.036 | 0.935 ± 0.118 | 1.084 ± 0.138 | 1.046 ± 0.130 | 1.002 ± 0.087 | 1.191 ± 0.435 | 1.040 ± 0.105 | Changes in gene expression of GFAP ([8]; 1 µM CCP): 1.096 ± 0.211; Changes in gene expression of NES [9, 17]: 1.081 ± 0.056; Changes in gene expression of NES [9, 18]: 0.886 ± 0.037; Changes in gene expression of TUBA1A [10, 16]: 1.016 ± 0.098; Changes in gene expression of TUBA1A [10, 17]: 1.023 ± 0.160; Changes in gene expression of TUBA1A [10, 18]: 1.354 ± 0.126 |
| CC[C@H](C)[C@@H]1NC(=O)[C@H](Cc2ccc(OC)cc2)N(C)C(=O)[C@H]([C@@H](C)O)N2C(=O)[C@H](CC[C@H]2O)NC(=O)[C@H](CC(C)C)NC(=O)[C@@H](NC(=O)[C@H](CCC(N)=O)NC(=O)[C@H](CCc2ccc(O)cc2)NC(=O)[C@@H](O)CO)[C@@H](C)OC1=O | 132 ± 87.5 | 18.2 ± 15.7 | 0.949 ± 0.140 | 0.988 ± 0.147 | 1.162 ± 0.251 | 1.051 ± 0.351 | 0.947 ± 0.101 | 1.119 ± 0.240 | 1.262 ± 0.077 | 1.203 ± 0.196 | 1.370 ± 0.208 | 0.940 ± 0.162 | 0.824 ± 0.128 | 1.000 ± 0.141 | 1.015 ± 0.057 | 1.051 ± 0.185 | 1.147 ± 0.105 | 1.107 ± 0.214 | 1.016 ± 0.046 | 1.003 ± 0.164 | Changes in gene expression of GFAP ([8]; 1 µM CCP): 1.283 ± 0.185; Changes in gene expression of NES [9, 17]: 1.069 ± 0.105; Changes in gene expression of NES [9, 18]: 1.240 ± 0.041; Changes in gene expression of TUBA1A [10, 16]: 1.124 ± 0.050; Changes in gene expression of TUBA1A [10, 17]: 1.094 ± 0.172; Changes in gene expression of TUBA1A [10, 18]: 1.171 ± 0.049 |
| CC(C)[C@@H]1NC(=O)[C@H](NC(=O)N[C@@H](CCCNC(=N)N)C(=O)O)CCCCNC(=O)[C@H](Cc2ccccc2)NC(=O)[C@H](C)N(C)C(=O)[C@H](CCc2ccc(O)cc2)NC1=O [anabaenopeptin B] ({Arg-CO}-[dK]V[hTyr][NMeA]F; lactam 1-C) | 9.5 ± 0.9 | 12.3 ± 6.1 | 1.175 ± 0.386 | 0.935 ± 0.157 | 0.934 ± 0.166 | 1.053 ± 0.124 | 1.434 ± 0.180 | 0.918 ± 0.204 | 1.361 ± 0.291 | 1.221 ± 0.338 | 1.388 ± 0.313 | 1.082 ± 0.219 | 0.807 ± 0.100 | 0.895 ± 0.119 | 0.998 ± 0.070 | 1.039 ± 0.070 | 1.122 ± 0.033 | 1.088 ± 0.390 | 1.175 ± 0.148 | 0.948 ± 0.143 | Changes in gene expression of NES [9, 17]: 0.992 ± 0.085; Changes in gene expression of NES [9, 18]: 0.931 ± 0.054; Changes in gene expression of TUBA1A [10, 16]: 1.131 ± 0.031; Changes in gene expression of TUBA1A [10, 17]: 1.098 ± 0.192; Changes in gene expression of TUBA1A [10, 18]: 1.429 ± 0.068 |
| C=C1C(=O)N[C@H](C)C(=O)N[C@@H](CC(C)C)C(=O)N[C@@H](C(=O)O)[C@H](C)C(=O)N[C@@H](CCCNC(=N)N)C(=O)N[C@@H](/C=C/C(C)=C/[C@H](C)[C@H](Cc2ccccc2)OC)[C@H](C)C(=O)N[C@@H](C(=O)O)CCC(=O)N1C [MC-LR, Microcystin-LR, reference compound] (R[Adda][d(γGlu)][NMeDha][dA]L[dAsp(3S-Me)]-OH; lactam N-7) |  |  |  |  |  |  |  |  |  |  |  |  |  |  |  |  |  |  |  |  | IC50 [1]: 0.005 ± 0.0016 µM; IC50 [2]: 4.8e-05 ± 1e-05 µM; Changes in gene expression of ACTB [3]: 1.866 ± 0.844 and 1.071 ± 0.437; Changes in gene expression of GFAP [4]: 1.395 ± 0.312 and 1.453 ± 0.279; Changes in gene expression of NES [5]: 0.917 ± 0.067 and 1.266 ± 0.250; Changes in gene expression of TUBA1A [6]: 0.957 ± 0.046 and 0.941 ± 0.025; Changes in gene expression of NES [9]: 1.030 ± 0.105 and 0.877 ± 0.148; Changes in gene expression of TUBA1A [10]: 1.031 ± 0.064 and 0.983 ± 0.099 |
